# According to ChEMBL document CHEMBL3885881, “DrugMatrix”:
# Species: Rattus norvegicus
# Experiment: DrugMatrix - Regimen: Daily Repeat
# Type: toxicity, organism-based, Sprague-Dawley
# Parameters: regimen Daily Repeat, gender Male, age 6-8 weeks
# Details: in vivo, po, route oral GAVAGE, vehicle 100 % WATER; for ABSOLUTE BASOPHIL / ABSOLUTE EOSINOPHIL / ABSOLUTE LYMPHOCYTE / ABSOLUTE MONOCYTE / ABSOLUTE SEGMENTED NEUTROPHIL / BASOPHIL / EOSINOPHIL / ERYTHROCYTE COUNT / HEMATOCRIT / HEMOGLOBIN / LEUKOCYTE COUNT / LYMPHOCYTE / MEAN CORPUSCULAR HEMOGLOBIN / MEAN CORPUSCULAR HEMOGLOBIN CONCENTRATION / MEAN CORPUSCULAR VOLUME / MONOCYTE / NEUTROPHIL / NUCLEATED RED BLOOD CELLS / PLATELET COUNT: tissue Blood; for ALANINE AMINOTRANSFERASE / ALBUMIN / ALKALINE PHOSPHATASE / ASPARTATE AMINOTRANSFERASE / BLOOD UREA NITROGEN / CARBON DIOXIDE / CHLORIDE / CHOLESTEROL / CREATINE PHOSPHOKINASE / CREATININE / GLUCOSE / LACTATE DEHYDROGENASE / LIPASE / PHOSPHORUS / POTASSIUM / SODIUM / TOTAL BILIRUBIN / TOTAL PROTEIN / URIC ACID: tissue Plasma
# [1] = 0 mg/kg, 72 h, dose level Control, time 3 day
# [2] = 0 mg/kg, 120 h, dose level Control, time 5 day
# [3] = 3525 mg/kg, 72 h, dose level High, time 3 day
# [4] = 3525 mg/kg, 120 h, dose level High, time 5 day
compound,measurement,setting,value
OCCO [ETHYLENE GLYCOL],ABSOLUTE BASOPHIL,[1],0 CELLS/uL
same,ABSOLUTE EOSINOPHIL,[1],0 CELLS/uL
same,ABSOLUTE LYMPHOCYTE,[1],7802.17 CELLS/uL
same,ABSOLUTE MONOCYTE,[1],13.5 CELLS/uL
same,ABSOLUTE SEGMENTED NEUTROPHIL,[1],617.67 CELLS/uL
same,BASOPHIL,[1],0%
same,EOSINOPHIL,[1],0%
same,ERYTHROCYTE COUNT,[1],5.35 x10E6/uL
same,HEMATOCRIT,[1],33.02%
same,HEMOGLOBIN,[1],12.88 G/DL
same,LEUKOCYTE COUNT,[1],8.43 x10E3/uL
same,LYMPHOCYTE,[1],92.67%
same,MEAN CORPUSCULAR HEMOGLOBIN,[1],24.12 pg
same,MEAN CORPUSCULAR HEMOGLOBIN CONCENTRATION,[1],39.03 G/DL
same,MEAN CORPUSCULAR VOLUME,[1],61.8 fL
same,MONOCYTE,[1],0.17%
same,NEUTROPHIL,[1],7.17%
same,NUCLEATED RED BLOOD CELLS,[1],0 /100WBC
same,PLATELET COUNT,[1],1124.83 x10E3/uL
same,ALANINE AMINOTRANSFERASE,[1],54.17 u/L
same,ALBUMIN,[1],4.07 G/DL
same,ALKALINE PHOSPHATASE,[1],383.83 u/L
same,ASPARTATE AMINOTRANSFERASE,[1],82.17 u/L
same,BLOOD UREA NITROGEN,[1],13.67 mg/dL
same,CARBON DIOXIDE,[1],31 mmol/L
same,CHLORIDE,[1],100.83 MEQ/L
same,CHOLESTEROL,[1],65.17 mg/dL
same,CREATINE PHOSPHOKINASE,[1],228.33 u/L
same,CREATININE,[1],0.12 mg/dL
same,GLUCOSE,[1],148 mg/dL
same,LACTATE DEHYDROGENASE,[1],97.83 u/L
same,LIPASE,[1],9.17 u/L
same,PHOSPHORUS,[1],9.75 mg/dL
same,POTASSIUM,[1],5.85 MEQ/L
same,SODIUM,[1],147.02 MEQ/L
same,TOTAL BILIRUBIN,[1],0.18 mg/dL
same,TOTAL PROTEIN,[1],6.1 G/DL
same,URIC ACID,[1],0.5 mg/dL
same,ABSOLUTE BASOPHIL,[2],0 CELLS/uL
same,ABSOLUTE EOSINOPHIL,[2],0 CELLS/uL
same,ABSOLUTE LYMPHOCYTE,[2],10538 CELLS/uL
same,ABSOLUTE MONOCYTE,[2],15.83 CELLS/uL
same,ABSOLUTE SEGMENTED NEUTROPHIL,[2],762.83 CELLS/uL
same,BASOPHIL,[2],0%
same,EOSINOPHIL,[2],0%
same,ERYTHROCYTE COUNT,[2],5.49 x10E6/uL
same,HEMATOCRIT,[2],34.63%
same,HEMOGLOBIN,[2],13.72 G/DL
same,LEUKOCYTE COUNT,[2],11.32 x10E3/uL
same,LYMPHOCYTE,[2],92.67%
same,MEAN CORPUSCULAR HEMOGLOBIN,[2],24.97 pg
same,MEAN CORPUSCULAR HEMOGLOBIN CONCENTRATION,[2],39.57 G/DL
same,MEAN CORPUSCULAR VOLUME,[2],63.05 fL
same,MONOCYTE,[2],0.17%
same,NEUTROPHIL,[2],7.17%
same,NUCLEATED RED BLOOD CELLS,[2],0.17 /100WBC
same,PLATELET COUNT,[2],802 x10E3/uL
same,ALANINE AMINOTRANSFERASE,[2],50.5 u/L
same,ALBUMIN,[2],4.07 G/DL
same,ALKALINE PHOSPHATASE,[2],336.83 u/L
same,ASPARTATE AMINOTRANSFERASE,[2],81 u/L
same,BLOOD UREA NITROGEN,[2],14.17 mg/dL
same,CARBON DIOXIDE,[2],32 mmol/L
same,CHLORIDE,[2],98.33 MEQ/L
same,CHOLESTEROL,[2],69.17 mg/dL
same,CREATINE PHOSPHOKINASE,[2],253.33 u/L
same,CREATININE,[2],0.13 mg/dL
same,GLUCOSE,[2],153.67 mg/dL
same,LACTATE DEHYDROGENASE,[2],157 u/L
same,LIPASE,[2],9 u/L
same,PHOSPHORUS,[2],10.78 mg/dL
same,POTASSIUM,[2],6.11 MEQ/L
same,SODIUM,[2],144.57 MEQ/L
same,TOTAL BILIRUBIN,[2],0.15 mg/dL
same,TOTAL PROTEIN,[2],6.05 G/DL
same,URIC ACID,[2],0.73 mg/dL
same,ABSOLUTE BASOPHIL,[3],0 CELLS/uL
same,ABSOLUTE EOSINOPHIL,[3],0 CELLS/uL
same,ABSOLUTE LYMPHOCYTE,[3],6464 CELLS/uL
same,ABSOLUTE MONOCYTE,[3],70.67 CELLS/uL
same,ABSOLUTE SEGMENTED NEUTROPHIL,[3],598.67 CELLS/uL
same,BASOPHIL,[3],0%
same,EOSINOPHIL,[3],0%
same,ERYTHROCYTE COUNT,[3],5.57 x10E6/uL
same,HEMATOCRIT,[3],33.43%
same,HEMOGLOBIN,[3],13.07 G/DL
same,LEUKOCYTE COUNT,[3],7.13 x10E3/uL
same,LYMPHOCYTE,[3],90.67%
same,MEAN CORPUSCULAR HEMOGLOBIN,[3],23.5 pg
same,MEAN CORPUSCULAR HEMOGLOBIN CONCENTRATION,[3],39.1 G/DL
same,MEAN CORPUSCULAR VOLUME,[3],60.17 fL
same,MONOCYTE,[3],1%
same,NEUTROPHIL,[3],8.33%
same,NUCLEATED RED BLOOD CELLS,[3],0 /100WBC
same,PLATELET COUNT,[3],918.33 x10E3/uL
same,ALANINE AMINOTRANSFERASE,[3],68 u/L
same,ALBUMIN,[3],3.93 G/DL
same,ALKALINE PHOSPHATASE,[3],332 u/L
same,ASPARTATE AMINOTRANSFERASE,[3],88.33 u/L
same,BLOOD UREA NITROGEN,[3],12.33 mg/dL
same,CARBON DIOXIDE,[3],36 mmol/L
same,CHLORIDE,[3],97.67 MEQ/L
same,CHOLESTEROL,[3],61 mg/dL
same,CREATINE PHOSPHOKINASE,[3],279 u/L
same,CREATININE,[3],0.1 mg/dL
same,GLUCOSE,[3],140 mg/dL
same,LACTATE DEHYDROGENASE,[3],110.33 u/L
same,LIPASE,[3],9 u/L
same,PHOSPHORUS,[3],9 mg/dL
same,POTASSIUM,[3],5.82 MEQ/L
same,SODIUM,[3],143.77 MEQ/L
same,TOTAL BILIRUBIN,[3],0.17 mg/dL
same,TOTAL PROTEIN,[3],5.7 G/DL
same,URIC ACID,[3],0.77 mg/dL
same,ABSOLUTE BASOPHIL,[4],0 CELLS/uL
same,ABSOLUTE EOSINOPHIL,[4],0 CELLS/uL
same,ABSOLUTE LYMPHOCYTE,[4],7667.33 CELLS/uL
same,ABSOLUTE MONOCYTE,[4],0 CELLS/uL
same,ABSOLUTE SEGMENTED NEUTROPHIL,[4],399.33 CELLS/uL
same,BASOPHIL,[4],0%
same,EOSINOPHIL,[4],0%
same,ERYTHROCYTE COUNT,[4],5.77 x10E6/uL
same,HEMATOCRIT,[4],35.47%
same,HEMOGLOBIN,[4],14.17 G/DL
same,LEUKOCYTE COUNT,[4],8.07 x10E3/uL
same,LYMPHOCYTE,[4],95.33%
same,MEAN CORPUSCULAR HEMOGLOBIN,[4],24.53 pg
same,MEAN CORPUSCULAR HEMOGLOBIN CONCENTRATION,[4],39.97 G/DL
same,MEAN CORPUSCULAR VOLUME,[4],61.43 fL
same,MONOCYTE,[4],0%
same,NEUTROPHIL,[4],4.67%
same,NUCLEATED RED BLOOD CELLS,[4],0 /100WBC
same,PLATELET COUNT,[4],1091.67 x10E3/uL
same,ALANINE AMINOTRANSFERASE,[4],54 u/L
same,ALBUMIN,[4],4.1 G/DL
same,ALKALINE PHOSPHATASE,[4],328.33 u/L
same,ASPARTATE AMINOTRANSFERASE,[4],80 u/L
same,BLOOD UREA NITROGEN,[4],14 mg/dL
same,CARBON DIOXIDE,[4],35.67 mmol/L
same,CHLORIDE,[4],96.33 MEQ/L
same,CHOLESTEROL,[4],66 mg/dL
same,CREATINE PHOSPHOKINASE,[4],238.33 u/L
same,CREATININE,[4],0.14 mg/dL
same,GLUCOSE,[4],145 mg/dL
same,LACTATE DEHYDROGENASE,[4],115.67 u/L
same,LIPASE,[4],9.33 u/L
same,PHOSPHORUS,[4],9.87 mg/dL
same,POTASSIUM,[4],6.09 MEQ/L
same,SODIUM,[4],144 MEQ/L
same,TOTAL BILIRUBIN,[4],0.17 mg/dL
same,TOTAL PROTEIN,[4],6.17 G/DL
same,URIC ACID,[4],0.73 mg/dL
